In US8058425B2, “Purine derivatives as kinase inhibitors” (Eli Lilly and Company, priority 2002, dated 2011):

Tests used:
female Fischer 344 rats = test: Bone Deposition; type: in vivo, rat; parameters: key: +: hypertrophy and proliferation of osteoblasts with production of osteoid observed; −: hypertrophy and proliferation of osteoblasts with production of osteoid not observed at this dose; conditions: oral gavage daily for 4 days
Experimental: Vehicle or test compound in vehicle (1% Carboxymethylcellulose sodium, 0.25% Polysorbate 80, and 0.05% Dow Corning Antifoam 1510-US in purified water) is administered orally by gavage to female Fischer 344 rats daily for 4 days with three rats in each dosage group. The rats are delivered for necropsy and sections of formalin-fixed, paraffin-embedded bone are examined microscopically to evaluate osteoblast proliferation and deposition of osteoid.
The compounds in the following tables were tested essentially as described above and hypertrophy and proliferation of osteoblasts along surfaces of medullary trabecula and the cortical periosteum accompanied by production of osteoid was observed.
The compound of Example 365 was tested again essentially as described above at 0, 3, 10, and 30 mg/kg with four rats at each dosage level for 21 days. The vertebra and the femur were submitted for analysis of bone mineral density (BMD), bone mineral content (BMC), and cross sectional area following 21 days of daily dosing with the compound of Example 365.

ZDF rats = test: Glucose Lowering Assay; type: in vivo, rat; conditions: oral gavage, dose of 10 mg/kg
Experimental: The glucose lowering assay is an in vivo test that measures the effect of the test compound on blood glucose and triglycerides relative to insulin. (ELDAR-FINKLEMAN, H., et al., Expression and Characterization of Glycogen Synthase Kinase-3 Mutants and Their Effect on Glycogen Synthase Activity in Intact Cells, Proc. Nat. Acad. Sci, 93, 10228-10233 (1996)). Briefly, ZDF rats (Charles River, Inc.) at six weeks of age are housed individually with free access to food and water. Rats are dosed with drug once daily by oral gavage, with the compound prepared as a suspension in 1% caboxymethylcellusolve/0.25% Tween 80 (CMC-Tween). Vehicle controls are dosed with CMC-Tween only. The duration of study varied according to the protocol used, with acute dosing studies lasting one day and dose escalation studies lasting seven days. Body weights and food consumption measurements are also performed once a week for seven-day studies. For measurement of blood glucose and triglycerides, blood samples of 600 μl are collected by the tail snip method. […]

[1] = biological target: T1, GSK-3β kinase activity in brain cortex tissue (Mus musculus, UniProt Q9WV60); test: Ex Vivo Brain Assay; type: in vivo; conditions: oral dosing of mice, dose of 20 mg/kg
T1 construct: brain cortex tissue is dissected and homogenized in freshly prepared lysis buffer; from tissue; host or cells: mouse (PDAPP or CD-1) brain cortex, cytosolic homogenate
T1 sequence (Q9WV60 whole entry): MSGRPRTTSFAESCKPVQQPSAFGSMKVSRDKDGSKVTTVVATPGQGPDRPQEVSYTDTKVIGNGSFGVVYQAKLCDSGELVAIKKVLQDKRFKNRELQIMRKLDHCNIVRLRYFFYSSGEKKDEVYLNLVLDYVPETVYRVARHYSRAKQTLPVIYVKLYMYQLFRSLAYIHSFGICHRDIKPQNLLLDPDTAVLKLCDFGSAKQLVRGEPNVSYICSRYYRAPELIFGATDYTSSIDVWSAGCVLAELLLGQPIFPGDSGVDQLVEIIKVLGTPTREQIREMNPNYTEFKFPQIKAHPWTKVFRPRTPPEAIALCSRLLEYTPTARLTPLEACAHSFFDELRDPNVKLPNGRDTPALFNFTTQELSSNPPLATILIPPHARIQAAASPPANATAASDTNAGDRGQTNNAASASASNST
Experimental: The ex vivo brain assay assesses the GSK-3β kinase activity of the test compound in brain cortex tissue according to standard protocols (Wang, et al., Anal. Biochem., 220, 397-402 (1994)).
The ex vivo GSK-3β kinase activity of a compound is assayed following oral dosing of 2 to 3 month old PDAPP or CD-1 mice. After a 20 mg/kg, 24-hour dose, followed by an additional three-hour dose, brain cortex tissue is dissected and homogenized in freshly prepared lysis buffer (10 mM K2HPO4 pH 7.2, 1 mM EDTA, 5 mM EGTA, 10 mM MgCl2, 50 mM β-Glycerophosphate, 1 mM Na3VO4, 2 mM DTT, 1 μM Microcystin, COMPLETE protease inhibitor tablet, no detergent). Following a thirty-minute incubation on ice, cortex homogenate samples are centrifuged (100,000 G) for 30 minutes at 4° C. (Ahmed, N. N., et al., Oncogene, 8, 1957 […]). The total protein concentration of homogenate is determined using the BCA method (Pierce). GSK-3β activity in cytosolic homogenate from vehicle- and compound-treated mice is then assayed. The kinase reaction occurs in a 50 μl total volume containing 20 mM MOPS pH 7.4, 25 mM β-glycerol phosphate, 5 mM EGTA, 1 mM NA3VO4, 1 mM DTT, 15 mM MgCl2, 100 μM cold ATP, 200 μM CREB peptide, 10 μL cytosolic cortex brain homogenate, and 5 μCi γ-^33P-ATP. […] The following day, the filter plate is read for ^33P on Top Count (Packard). […]

3T3-L1 adipocytes = test: Glycogen Synthesis Assay; type: cell-based; conditions: 0.1 μM
Experimental: The glycogen synthesis assay measures the increase in the production of glycogen both in the absence and in the presence of insulin in the cells. This test is done according to standard protocols. (Berger, J. and Hayes, N. S., Anal. Biochem., 261, 159-163 (1998)). Briefly, 3T3-L1 adipocytes are plated and differentiated in a 96-well plate at 25,000 cells/well. The plate is serum-starved overnight. The serum-starvation media is removed just prior to assay, and the plate is washed with 100 μl/well Krebs-Ringer-Hepes buffer (KRBH). The KRBH is removed and 50 μl of compound (twice the amount of the final concentration) is added to the assay plate. Next, 50 μl of ^14C-labeled glucose is added to the assay plate at 0.1 μCi/well. The plate is then incubated at 37° C. for 2 hours.
The plate is washed with 100 μL/well of PBS, and the cells are lysed with 75 μl/well of 1N NaOH. The plate is heated at 70° C. for 20 minutes. An aliquot (50 μl) of the supernatant is transferred from the assay plate to a Millipore FC filter plate containing 120 μl/well of ice-cold ethanol. The plate is allowed to stand for 2 hours at 4° C. to facilitate precipitation. The ethanol is removed from the filter plate via a vacuum manifold, and the plate is washed with 100 uL/well of ice-cold 70% ethanol. […] The plate was then counted on a Packard Topcount. […]

[2] = test system: AG04160C FAD lymphoblast cells; test: Beta-Catenin Protection Assay; type: cell-based, human; conditions: 0.1 μM, 24 hours
Experimental: The beta-catenin assay is the fold induction over basal beta-catenin and is performed according to standard protocols (Hedgepeth, C. M., Dev. Biol., 185, 82-91 (1997); Chen, G., et al., J. Neurochem., 72, 1327-1330 (1999); Hong, M., et al., J. Biol. Chem., 272, 25326-25332 (1997)).
The human familial Alzheimer's disease (FAD) presenilin-1 AG04160C lymphoblast cell line (Coriell Cell Repository, Camden, N.J.) is maintained as a suspension culture in RPMI 1640 (with L-Glutamine) supplemented with 10% fetal bovine serum and 1% penicillin-streptomycin in an atmosphere of 37° C. and 5% CO2. The AG04160C FAD lymphoblast cells are seeded in T-25 cm^2 flasks at 2.5 to 5.0×10^5 cells/ml in a total volume of 10 ml. […] The total protein concentration in whole cell lysate samples is determined using the BCA method (Pierce). Next, 15 μg of sample is loaded on a 10% Bis-Tris NuPage gel and transferred to a pure nitrocellulose membrane followed by β-catenin immunoblot analysis using a (3-catenin specific antibody (Transduction Labs). The β-catenin accumulation/stability is then quantified following densitometry analysis of protein bands (Kodak Digital Science). Final results are reported as fold induction over basal β-catenin. The compound of Example 121 was tested in this assay and induced a 9.8-fold induction of β-catenin at 0.1 μM.

SMILES	hypertrophy and proliferation of osteoblasts with production of osteoid (female Fischer 344 rats; 50 mg/kg)	hypertrophy and proliferation of osteoblasts with production of osteoid (female Fischer 344 rats; 150 mg/kg)	glucose lowering (ZDF rats)	inhibition of kinase activity (ex vivo GSK-3β, brain cortex) [1]	increase of glycogen synthesis (3T3-L1 adipocytes; in the absence of insulin)	increase of glycogen synthesis (3T3-L1 adipocytes; in the presence of insulin)	fold induction over basal β-catenin [2]
O=C1NC(=O)C(c2cnc3ccccn23)=C1c1cn2c3c(cccc13)CN(c1ncccn1)CC2 [Example 560, 3-(6-(pyrimidin-2-yl)-6,7-dihydro-6H-[1,4]diazepino[6,7,1-hi]indol-1-yl)-4-(imidazo[1,2-a]pyridin-3-yl)pyrrole-2,5-dione]	+	+	–	–	–	–	–
Cl.O=C1NC(=O)C(c2cc(F)cc3ccoc23)=C1c1cn2c3c(cccc13)CNCC2 [Example 121, 3-(6,7-dihydro-6H-[1,4]diazepino[6,7,1-hi]indol-1-yl)-4-(5-fluorobenzofur-7-yl)-2,5-dioxopyrrole hydrochloride]	–	–	56%	30%	3.7 fold	6.4 fold	9.8 fold
